Laboratory results published in patent US6562789B2, “Histidine derivatives, preparation process, and their use as free antiradical agents” (L'Oreal S.A., priority 1996, dated 2003).

How the values were obtained:
[1] = anti-singlet-oxygen activity: deactivation of singlet oxygen, luminescence at 1270 nm, Stern-Volmer type analysis; type: physicochemical; conditions: for (kr + kq), sum of the rate constants for the chemical reaction and for the physical inhibition of singlet oxygen: singlet oxygen generated by irradiating Ru(bipy)3Cl at 437 nm in deuterated methanol, luminescence at 1270 nm
Text: The anti-singlet-oxygen activity of the compound of Example 1 was compared with that of N-octanoyl-β-alanyl-L-histidine (referred to as compound A) of the prior art, according to the following principle, which is also described in Pure & Appl. Chem., vol. 62, No. 8, 1467-1476 (1990).
In all the experiments, singlet oxygen was generated by irradiating at 437 nm Ru(bipy)3Cl (tris(2,2′-bipyridyl)ruthenium chloride hexahydrate) dissolved in deuterated methanol.
The sum of the physical inhibition constants (kq) and chemical reaction constants (kr) of singlet oxygen with the test compounds was determined.
The results for the deactivation of singlet oxygen can be analysed by measuring the luminescence (infrared emission) of singlet oxygen at 1270 nm, and by monitoring the kinetics of disappearance of oxygen.
The exploitation of the results is based on the Stern-Volmer type analysis principle: the signal obtained is measured in the absence (So) and in the presence (S) of the test compound, at various concentrations in the solution. The ratio So/S makes it possible to determine the value of (kr+kq) according to the following relationship:
[P] denotes the concentration of test compound in the solution, φo denotes the quantic yield of the emission in the absence of compound, φ denotes the quantic yield of the emission in the presence of compound, τo denotes the lifetime of singlet oxygen in deuterated methanol (270 μs), kr+kq denotes the sum of the rate constants for the chemical reaction and for the physical inhibition of singlet oxygen.

Q: Which “(kr + kq), sum of the rate constants for the chemical reaction and for the physical inhibition of singlet oxygen” value [1] does the source give for `CCCCCCCC(=O)NCCC(=O)N[C@@H](Cc1c[nH]cn1)C(=O)O` [Compound A, N-octanoyl-β-alanyl-L-histidine, reference compound] here?
A: The value was 7.4 × 10^5 ± 0.4 1.mol^−1.s^−1.

Q: With `CCCCCCCCOC(=O)NCCC(=O)N[C@@H](Cc1c[nH]cn1)C(=O)O` [Example 1, N-octyloxycarbonyl-β-alanyl-L-histidine] as the molecule, how does the “anti-singlet-oxygen activity compared with compound A of the prior art” value ([1]; comparison of (kr+kq) in deuterated methanol) read?
A: The value was “significantly higher anti-singlet-oxygen activity”.

Q: What about the “(kr + kq), sum of the rate constants for the chemical reaction and for the physical inhibition of singlet oxygen” value [1] of the same molecule?
A: The value was 8.8 × 10^6 ± 0.3 1.mol^−1.s^−1.

Q: And the melting point?
A: The melting point was 188 to 190 °C.

Q: For `CCCCCCCCCCCCOC(=O)NCCC(=O)N[C@@H](Cc1c[nH]cn1)C(=O)O` [Example 2, N-dodecyloxycarbonyl-β-alanyl-L-histidine], which melting point is on record?
A: The melting point was 168 to 172 °C.
